According to US11834680B2, “Single kidney cell-derived organoids” (Rutgers, The State University of New Jersey, priority 2017, dated 2023):

Columns and labels:
[1] = test system: cultured nephron progenitor cells; experiment: Effect of activating Wnt signaling on kidney organoid formation, shape and size; type: cell-based, human
Procedure: The organoids generated from multiple patient samples had various phenotypes during the different times of 2D culture. A similar diversity in phenotypes was also detected in the 3D culture stage. Moreover, the organoids formed in 3D culture had both spherical or branching shapes. When […] (1 μM) was added to the media as a pulse for 12 h then media was replaced with fresh media without CHIR, branching tubular shaped organoids increased. In another group of experiments, the effects of addition of 1× B27 supplement were examined.
The Wnt signaling pathway is known to trigger the initiation of nephron progenitor cell differentiation. The effects of activating Wnt signaling in organoid studies was examined. Cultured 2D and 3D cells were treated with a GSK3 inhibitor CHIR99021 (CHIR), which activates the canonical Wnt signaling pathway. […] On the other hand, branching tubular shaped organoids increased.

[2] = test system: Nephrectomy-derived normal adjacent tissue (NAT) and RCC cells; experiment: Organoid forming efficiency (OFE) of kidney cells in 2D stage I / 3D Matrigel stage II culture; type: cell-based, human
Description: The human kidney contains up to 2 million epithelial nephrons responsible for blood filtration. Regenerating the kidney requires the induction of the more than 20 distinct cell types required for excretion and the regulation of pH, and electrolyte and fluid balance. Herein is described the induction of progenitors for both collecting duct and nephrons via the directed differentiation of patient-derived normal and RCC cells derived from nephrectomy tissues. Under an IRB-approved protocol, nephrectomy specimens from high-risk RCC cases were collected and processed within 15 minutes of surgery. Areas containing tumor as deemed by the pathologist and normal adjacent tissue counterpart were microdissected. A 3D culture system fit for growth of kidney cells was first developed by isolating epithelial cells microdissected from primary RCC specimens. Qualified pathologists confirmed their renal origin from the corresponding H&E. Nephrectomy-derived normal adjacent tissue (NAT) and RCC cells were utilized to determine best conditions for generating organoids. A two-step methodology comprising a first phase of adult kidney stem cell enrichment, conducted in a 2D setting (stage I), followed by a second phase of organoid 3D growth obtained in pure matrigel chambers (stage II), was conducted. […] Stage I media included using either EGM2 or ADMED complete medium (with the addition of EGF, BFGF, IGF-1, VEGF, hydrocortisone, ascorbic acid, insulin, heparin, gentamicin, amphotericin-B, and 2% FBS).
Cells were placed in 3D droplet culture chambers in stage II complete media containing Matrigel, to mimic the basal lamina of the normal renal tissue, and growth factors in conditions that permits cellular self-organization of organoid forming cells. Kidney cells were embedded as single cells in 3D-well plates. Organoid formation was then followed microscopically daily for 2 weeks.

[3] = cultured 2D and 3D cells treated

## Cc1c[nH]c(-c2cnc(NCCNc3ccc(C#N)cn3)nc2-c2ccc(Cl)cc2Cl)n1 [CHIR99021]
[1]; 1 μM added to the media as a pulse for 12 h, then fresh media
  branching tubular shaped organoids: increased
[1]; [3]
  cell death: accompanied by cell death
  differentiation in cultured nephron progenitor cells: induced differentiation
  organoid size: smaller size organoids
[1]; cultured 2D and 3D cells treated, concentration not given
  branching tubular shaped organoids: increased

## IGF-1: Insulin Growth Factor 1, culture medium supplement
[2]; addition to the culture media
  organoid forming efficiency (OFE): improved
[2]; doubling the IGF-1 dose (2×) in culture
  organoid forming efficiency (OFE): did not increase

## Insulin: culture medium supplement
[2]; addition to the culture media
  organoid forming efficiency (OFE): improved

## VEGF
[2]; addition to the culture media
  organoid forming efficiency (OFE): improved

## heparin
[2]; addition to the culture media
  organoid forming efficiency (OFE): improved
